According to patent publication US8371378B2, “Method for pre-treatment of subterranean sites adjacent to water injection wells” (E. I. du Pont de Nemours and Company, priority 2010, dated 2013):

Assays:
[1] = Titration of amine coated core sand in brine #2 with 1N HCl, amine in solution by GC (Example 2); type: physicochemical; details: brine #2, 1N HCl
Method: Helium was used as the carrier gas.
38 milligrams (mg) of N N-Dimethyl-1-Dodecanamine (hereafter referred to as “the amine”) was added to 10.210 gr of Pentane. This solution was added to 10.1845 gr of specific sand layers (Oa and Ob) obtained from the Schrader Bluff formation of the Milne Point Unit of the Alaskan North slope. The oil content of the sand was first removed using a mixture of methanol and toluene (50/50, volume/volume) as solvent washes. The solvent mixture was subsequently evaporated off the core sand to produce clean, dry, flowable core sand. This sand was mixed with the amine and pentane solution to produce a slurry. This slurry was thoroughly mixed and the pentane was evaporated off leaving the amine on the sand (hereafter referred to as sand/amine mixture). 100 ml of brine #2 (Table 3) was added to the sand/amine mixture to create the sand/amine/brine mixture. […] The fact that the amine was not detected underlined its strong binding to the sand particles. […] The data underlines the remarkable efficiency of an acid at ionizing and removing the amine from the sand.

[2] = Titration of sand/amine/brine mixture with 10% nitric acid, amine in solution by GC (Example 4); details: core sand, brine #2, 10 wt % nitric acid
Method: (§1) Concentration of amines, in media and water, were analyzed by gas chromatography (GC). An Agilent Model 5890 (Agilent, Wilmington, Del.), GC equipped with a […] and a split/splitless injector, a DB-FFAP column (30 meter length×0.32 millimeter (mm) depth×0.25 micrometer particle size). […] The system was calibrated using a sample of N,N-Dimethyl-1-Dodecaneamine (Aldrich). Helium was used as the carrier gas. A temperature gradient of 50 degrees Celsius (° C.) to 250° C. at 30° C. increase per minute (min) was used. Retention times (in minutes, min) for various chemicals of interest included: N,N-Dimethyl-1-Dodecaneamine (8.08 min); N,N-Dimethyl-1-Tetradecaneamine (8.85 min); N,N-Dimethyl-1-Hexadecane-amine (9.90 min); N,N-Dimethyl-1-Octadecaneamine (10.26 min) and N-Methyl,N-Benzyl)-1-Tetradecaneamine (11.40 min).
The procedure outlined in Example 2 was used to produce the sand/amine mixture except that 519 mg of the amine, 10 gr of Pentane. and 60.062 gr of sand from the Oa and Ob layers were used. 29.065 gr of this sand/amine mixture was added to 100 ml of brine #2 (Table 3) to create the sand/amine/brine mixture. […] 0.1 ml of 10 weight percent (wt %) nitric acid in water was added to this solution, and the pH and the amine concentration were measured again.

[3] = Titration of sand/amine/brine mixture with 10% acetic acid, amine in solution by GC (Example 5); details: core sand, brine #2, 10 wt % acetic acid
Method: as §1
The same procedure outlined in Example 4 was repeated here to produce the sand/amine mixture. 30.85 grams (gr) of the sand/amine mixture was added to 100 ml of brine #2 (Table 3) to create the sand/amine/brine mixture.

CCCCCCCCCCCCN(C)C [N-N-dimethyl-1-dodeanamine, N N-Dimethyl-1-Dodecanamine]
pH of complete ionization and solubilization of the amine in the water [1]: < 6.0 pH | pH of complete ionization and solubilization in the water of the amine [2]: < 6.7 pH | pH of complete ionization and solubilization in the water of the amine [3]: < 6.7 pH
